Source: the NIST ThermoML archive (doi:10.1016/j.jct.2012.05.012)

Assays:
[1] = wn = mass fraction of the nth substance listed; settings: for mass density: 101 kPa, Liquid, Vibrating tube method; for surface tension liquid-gas: Maximal bubble pressure
[2] = refractive index (Na D-line) (dimensionless); wn = mass fraction of the nth substance listed; settings: 101 kPa, Liquid, Standard Abbe refractometry

CCCCn1cc[n+](C)c1.NCC(=O)[O-] [1-butyl-3-methylimidazolium glycinate] + O
Settings | mass density [kg/m3] | refractive index | surface tension liquid-gas [mN/m]
[1], 313.15 K, w2 = 0.018 | 1103 | – | –
[1], 313.15 K, w2 = 0.0234 | 1103.4 | – | –
[1], 313.15 K, w2 = 0.0293 | 1103.9 | – | –
[1], 318.15 K, w2 = 0.0081 | 1099.2 | – | 43.7
[1], 318.15 K, w2 = 0.0091 | – | – | 43.9
[1], 318.15 K, w2 = 0.0102 | – | – | 44.1
[1], 318.15 K, w2 = 0.0118 | – | – | 44.4
[1], 318.15 K, w2 = 0.0129 | 1099.5 | – | –
[1], 318.15 K, w2 = 0.0131 | – | – | 44.6
[1], 318.15 K, w2 = 0.018 | 1099.9 | – | –
[1], 318.15 K, w2 = 0.0234 | 1100.3 | – | –
[1], 318.15 K, w2 = 0.0293 | 1100.7 | – | –
[1], 323.15 K, w2 = 0.0081 | 1096.1 | – | 43.3
[1], 323.15 K, w2 = 0.0091 | – | – | 43.5
[1], 323.15 K, w2 = 0.0102 | – | – | 43.7
[1], 323.15 K, w2 = 0.0118 | – | – | 44
[1], 323.15 K, w2 = 0.0129 | 1096.4 | – | –
[1], 323.15 K, w2 = 0.0131 | – | – | 44.2
[1], 323.15 K, w2 = 0.018 | 1096.8 | – | –
[1], 323.15 K, w2 = 0.0234 | 1097.2 | – | –
[1], 323.15 K, w2 = 0.0293 | 1097.6 | – | –
[1], 328.15 K, w2 = 0.0081 | 1092.9 | – | 42.9
[1], 328.15 K, w2 = 0.0091 | – | – | 43.1
[1], 328.15 K, w2 = 0.0102 | – | – | 43.3
[1], 328.15 K, w2 = 0.0118 | – | – | 43.5
[1], 328.15 K, w2 = 0.0129 | 1093.2 | – | –
[1], 328.15 K, w2 = 0.0131 | – | – | 43.8
[1], 328.15 K, w2 = 0.018 | 1093.6 | – | –
[1], 328.15 K, w2 = 0.0234 | 1094 | – | –
[1], 328.15 K, w2 = 0.0293 | 1094.4 | – | –
[2], 293.15 K, w2 = 0.0081 | – | 1.4993 | –
[2], 293.15 K, w2 = 0.0102 | – | 1.4968 | –
[2], 293.15 K, w2 = 0.0121 | – | 1.4944 | –
[2], 293.15 K, w2 = 0.014 | – | 1.4918 | –
[2], 293.15 K, w2 = 0.0161 | – | 1.4896 | –
[2], 298.15 K, w2 = 0.0081 | – | 1.4982 | –
[2], 298.15 K, w2 = 0.0102 | – | 1.4954 | –
[2], 298.15 K, w2 = 0.0121 | – | 1.4928 | –
[2], 298.15 K, w2 = 0.014 | – | 1.4907 | –
[2], 298.15 K, w2 = 0.0161 | – | 1.4879 | –
[2], 303.15 K, w2 = 0.0081 | – | 1.497 | –
[2], 303.15 K, w2 = 0.0102 | – | 1.4941 | –
[2], 303.15 K, w2 = 0.0121 | – | 1.4916 | –
[2], 303.15 K, w2 = 0.014 | – | 1.4895 | –
[2], 303.15 K, w2 = 0.0161 | – | 1.4869 | –
[2], 308.15 K, w2 = 0.0081 | – | 1.4955 | –
[2], 308.15 K, w2 = 0.0102 | – | 1.4927 | –
[2], 308.15 K, w2 = 0.0121 | – | 1.4907 | –
[2], 308.15 K, w2 = 0.014 | – | 1.4884 | –
[2], 308.15 K, w2 = 0.0161 | – | 1.4858 | –
[2], 313.15 K, w2 = 0.0081 | – | 1.4943 | –
[2], 313.15 K, w2 = 0.0102 | – | 1.4915 | –
[2], 313.15 K, w2 = 0.0121 | – | 1.4893 | –
[2], 313.15 K, w2 = 0.014 | – | 1.4872 | –
[2], 313.15 K, w2 = 0.0161 | – | 1.4845 | –
[2], 318.15 K, w2 = 0.0081 | – | 1.4931 | –
[2], 318.15 K, w2 = 0.0102 | – | 1.4904 | –
[2], 318.15 K, w2 = 0.0121 | – | 1.4879 | –
[2], 318.15 K, w2 = 0.014 | – | 1.4855 | –
[2], 318.15 K, w2 = 0.0161 | – | 1.4832 | –
[2], 323.15 K, w2 = 0.0081 | – | 1.4917 | –
[2], 323.15 K, w2 = 0.0102 | – | 1.4888 | –
[2], 323.15 K, w2 = 0.0121 | – | 1.4864 | –
[2], 323.15 K, w2 = 0.014 | – | 1.4838 | –
[2], 323.15 K, w2 = 0.0161 | – | 1.4814 | –
